Laboratory results from patent US20060079453A1, “Hla binding peptides and their uses” (priority 2002, published 2006).
Like-named read-outs stand apart in the source and are kept apart here. No end group written: not given here.

What was measured:
[1] = molecular target: HLA-DR DRB1*0101 (DR1) (Homo sapiens, UniProt P01903+P01911, A100R/D57E/F55L/F60I/F76Y/I96L/L162R/M171V/P40L/Q125E/R42F/V115G/Y59C); assay: biochemical; type: binding
[2] = molecular target: HLA-DR DRB1*0401 (DR4) (Homo sapiens, UniProt P01903+P01911, A100K/A169T/F76Y/I96L/K127E/L162R/M171V/N62H/P40V/Q125Y/R42H/S133A/S149N/S66Y/V115G/V209L/W38E); assay: biochemical; type: binding
[3] = molecular target: HLA-DR DRB1*1101 (DR11) (Homo sapiens, UniProt P01903+P01911, A100R/A169T/A87E/I96F/K41T/L162R/M171V/P40S/Q125H/Q178H/Q39Y/Q99D/R42S/S66Y/T262R/V115G/W38E); assay: biochemical; type: binding
Sequence of HLA-DR DRB1*1101 (DR11) (P01903 26-254 limits assumed, other chains not shown): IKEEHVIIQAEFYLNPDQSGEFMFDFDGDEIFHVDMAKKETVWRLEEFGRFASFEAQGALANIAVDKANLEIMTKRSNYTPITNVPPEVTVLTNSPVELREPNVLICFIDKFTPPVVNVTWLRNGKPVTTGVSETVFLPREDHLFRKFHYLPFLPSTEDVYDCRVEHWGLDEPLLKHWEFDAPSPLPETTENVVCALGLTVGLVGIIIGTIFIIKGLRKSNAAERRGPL

[4] = molecular target: HLA-DR DRB5*0101 (DR51) (Homo sapiens, UniProt P01903+Q30154); assay: biochemical; type: binding
[5] = tested on: HLA-DR DRB5*0201; type: binding, human; conditions: read-out: DRB5 *0201
[6] = molecular target: HLA-DR DRB1*0701 (DR7) (Homo sapiens, UniProt P01903+P01911, A100R/A102G/A103Q/D57E/D86V/E43K/F76Y/K127E/L162R/M171V/P40G/Q125H/Q99D/R33Q/R42Y/R54Q/S133A/S66F/T210M/V115G/Y107V/Y59L/Y89S); assay: biochemical; type: binding
[7] = molecular target: HLA-DR DRB3*0101 (DR52) (Homo sapiens, UniProt P01903+P79483); assay: biochemical; type: binding
[8] = molecular target: HLA-DQ DQA1*0301/B*0301 (DQ7) (Homo sapiens, UniProt P01909+P01920, A209T/C70Q/DUP78-78/E183D/F237L/G63E/I129T/K197E/L178F/L74F/L98V/Q57E/Q76R/S185I/S97I/T49S/V73L); assay: biochemical; type: binding
[9] = molecular target: HLA-DR DRB1*0301 (DR3) (Homo sapiens, UniProt P01903+P01911, A100K/A102G/A103R/A169T/F55Y/I96L/K41T/L162R/M171V/P40S/Q125H/Q178H/Q39Y/R42S/S66N/T106N/T262R/W38E/Y61H); assay: biochemical; type: binding
Sequence of HLA-DR DRB1*0301 (DR3) (P01903 26-254 limits assumed, other chains not shown): as above

[10] = molecular target: HLA-DR DRB1*0405 (DR4) (Homo sapiens, UniProt P01903+P01911, A100R/A169T/D86S/F76Y/I96L/K127E/L162R/M171V/N62H/P40V/Q125Y/R42H/S133A/S149N/S66Y/V115G/V209L/W38E); assay: biochemical; type: binding; conditions: DRB1 *0405
[11] = molecular target: HLA-DR DRB1*0802 (DR8) (Homo sapiens, UniProt P01903+P01911, A100R/A103L/A169T/F76Y/H45Y/I96F/K41T/L162R/M171V/P40S/Q125H/Q178H/Q39Y/Q99D/R218S/R42G/S66Y/V115G/W38E); assay: biochemical; type: binding
[12] = molecular target: HLA-DR DRB1*0901 (DR9) (Homo sapiens, UniProt P01903+P01911, A100R/A103E/D57H/D86V/F55Y/F60I/F76Y/I96F/K127E/L162R/M171V/P40D/Q125H/Q99R/R33Q/R42F/S133A/S66N/T210M/V115G/W38K/Y107V/Y59G/Y89S); assay: biochemical; type: binding; conditions: DRB1 *0901
[13] = molecular target: HLA-DR DRB1*1302 (DR13) (Homo sapiens, UniProt P01903+P01911, A100E/A169T/K41T/L162R/M171V/P40S/Q125H/Q178H/Q39Y/Q99D/R42S/S66N/T262R/V115G/W38E/Y61H); assay: biochemical; type: binding; conditions: DRBI *1302
Sequence of HLA-DR DRB1*1302 (DR13) (P01903 26-254 limits assumed, other chains not shown): as above

[14] = molecular target: HLA-DR DRB4*0101 (DR53) (Homo sapiens, UniProt P01903+P13762, G164S); assay: biochemical; type: binding; conditions: DRB4 *0101
[15] = molecular target: HLA-DQ DQA1*0501/B*0201 (DQ2) (Homo sapiens, UniProt P01909+P01920, A45G/A70V/D89A/E106A/E77G/E98D/H199R/L107V/N214S/P84L/P87L/T103K/T109R/T172A/T60S/V78E/V99I/Y58L/Y62S/Y69I/Y79F); assay: biochemical
[16] = molecular target: HLA-DQ DQA1*0301/B*0302 (DQ8) (Homo sapiens, UniProt P01909+P01920, A209T/A45G/C70Q/D89A/DUP78-78/E183D/E77G/F237L/G63E/H199R/I129T/K197E/L178F/L74F/L98V/Q57E/Q76R/S185I/S97I/T217I/T49S/V73L/Y58L); assay: biochemical
[17] = molecular target: HLA-DR DRB1*1501 (DR15) (Homo sapiens, UniProt P01903+P01911); assay: biochemical; type: binding; conditions: DRBI *1501

Substance	IC50 ([1]; DRB1 *0101) [nM]	IC50 [9] [nM]	IC50 ([2]; DRB1 *0401) [nM]	IC50 [10] [nM]	IC50 ([6]; DRB1 *0701) [nM]	IC50 [11] [nM]	IC50 [12] [nM]	IC50 ([3]; DRB1 *1101) [nM]	IC50 [13] [nM]	IC50 [7] [nM]	IC50 [14] [nM]	IC50 [8] [nM]	IC50 [15] [nM]	IC50 [16] [nM]	IC50 [17] [nM]	IC50 ([4]; DRB5 *0101) [nM]	further results
(15A)RQTTLKAAA																	IC50 ([1]; read-out: DRB1 *0101): 4.2 nM; IC50 ([2]; read-out: DRB1 *0401): 0.31 nM; IC50 ([3]; read-out: DRB1 *1101): 1.8 nM; IC50 ([4]; read-out: DRB5 *0101): 9.5 nM; IC50 [5]: 3100 nM
AAFAAAKTAAAFA																	IC50 ([1]; read-out: DRB1 *0101): 1.3 nM; IC50 ([2]; read-out: DRB1 *0401): 0.19 nM; IC50 ([6]; read-out: DRB1 *0701): 67 nM; IC50 ([3]; read-out: DRB1 *1101): 4.6 nM; IC50 ([7]; read-out: DRB3 *0101): 20000 nM; IC50 ([4]; read-out: DRB5 *0101): 25 nM; IC50 ([8]; read-out: DQB1*0301): 49 nM; IC50 [5]: 6.4 nM
GLALLSEAVLRGQAL [GLALLSEAVLRGQAL]	83	816	11	1440	4610	2000	15100	2580	1220	> 38200	3.5	107	6740	17000			
GSHLVEALYLVCGER	525	> 187000	8290	4610	560	> 54400	5390	> 10500	8030	> 18700	372	> 89300	677	2490	1350	29300	
IDVWLGGLAENFLPY												204	13	138			
IDVWLGGLAKNFLPY													> 4170				
ISLLLIQSWLEPVQF	184	27900	885	0.86	83	> 33300		2680	120	6760	2.5	> 89300	5230	562	60	> 9960	
LQLHVDKAVSGLRSL		22	9.7	13600	3210	801	> 78900	910	53	1040	31	88	7590	7840	2710	76	
MSYNLLGFLQRSSNT		108000		433	8870	900	8970	3070	1330	51800	4660			> 51200	6.8	9	
QHLCGSHLVEALYLV	170	48600	13000	9820	86	> 54400	7420	> 10500	7620	14800	1480	2550	359	8410		32000	
RLFDNASLRAHRLHQ	89	97	77			15000	23800		84	11400	3210			> 36200	85	557	
SAAPLRTITADTFRK				1460	3650	28100						301	1100	> 46700			
WKRMEVGQQAVEVWQ	62		24	94	46100		14700	512	159	> 42200		13700	159	12100		4300	
YAR(15A)RQTTLKAAA																	IC50 ([3]; read-out: DRB1 *1101): 1.2 nM; IC50 ([4]; read-out: DRB5 *0101): 0.94 nM; IC50 [5]: 62 nM
YAR(15A)SQTTLKAKT																	IC50 ([1]; read-out: DRB1 *0101): 2.4 nM; IC50 ([2]; read-out: DRB1 *0401): 0.78 nM; IC50 ([3]; read-out: DRB1 *1101): 2.5 nM; IC50 ([4]; read-out: DRB5 *0101): 1.4 nM; IC50 [5]: 48 nM
